The values below are quoted from earlier work in patent US20240156749A1, “Pre And Post Natal Compositions Including Carotenoids” (Maravilla, LLC, priority 2022, published 2024).

The subject of the data set is oxygen-induced retinopathy. The note with it: mouse model of retinopathy of prematurity; prenatal supplementation.

With `CC1=C(/C=C/C(C)=C/C=C/C(C)=C/C=C/C=C(C)/C=C/C=C(C)/C=C/C2=C(C)C[C@@H](O)CC2(C)C)C(C)(C)C[C@H](O)C1` [zeaxanthin], the “inhibition of oxygen-induced retinopathy” value is “significantly inhibits oxygen-induced retinopathy”.
Regarding `CC1=C[C@H](O)CC(C)(C)[C@H]1/C=C/C(C)=C/C=C/C(C)=C/C=C/C=C(C)/C=C/C=C(C)/C=C/C1=C(C)C[C@@H](O)CC1(C)C` [lutein], the “inhibition of oxygen-induced retinopathy” value is recorded as “significantly inhibits oxygen-induced retinopathy”.
